# Measured values: patent US12357601B2, “Composition for inhibiting growth of bacterium having menaquinone synthesis pathway through futalosine or futalosine derivative” (NOSTER INC., priority 2017, dated 2025)
# Columns and labels:
# Type in all cases: cell-based
# [1] = test system: Campylobacter jejuni ATCC33560 strain; experiment: Proliferation inhibitory effect (in vitro) on Campylobacter jejuni, absorbance and colony count; conditions: 100, 200, 400 μM, 24 hr; concentration dependent; strong compared to linoleic acid
# [2] = test system: Campylobacter coli ATCC33559 strain; experiment: Proliferation inhibitory effect (in vitro) on Campylobacter coli, absorbance and colony count; conditions: 100, 200, 400 μM, 24 hr; concentration dependent; strong compared to linoleic acid
# [3] = test system: Helicobacter pylori TK1029 strain; experiment: Proliferation inhibitory effect (in vitro) by ED50 measurement, viable count; conditions: BHI 2% FCS, viable count; for ED50 value, 15 hr later: 15 hr shaking culture; for ED50 value, 25 hr later: 25 hr shaking culture
# Experimental: Helicobacter pylori TK1029 strain (clinical isolate) was cultured in Brucella broth containing 10% FCS and 1×10^6 CFU of bacteria were respectively added to 3 mL of Brain-Heart Infusion Broth (BHI) media (previously added with free fatty acid (stearic acid, oleic acid, linoleic acid, ricinoleic acid, HYA) at 0, 0.5, 5, 50, 500 μg/mL) containing 2% FCS in a 6-well plate. Shaking culture was performed under conditions of temperature 37° C., humidity 100%, microaerobic (5% 02, 10% CO2, 85% N2), the culture medium (0.1 mL) from each well was applied to NISSUI plate, Helicobacter agar medium 15 hr and 25 hr later, and the number of colonies formed after microaerobic culture for 3 days was counted.
# [4] = test system: Helicobacter pylori SS1 strain, TN2GF4 strain, TK1029 strain, RC-1 strain; experiment: Proliferation inhibitory effect (in vitro) of low concentration fatty acid, shaking culture 24 hr, colony count; conditions: menaquinone (MK-4) 100 μg/mL added with fatty acid 20 μM
# Experimental: Helicobacter pylori SS1 strain, TN2GF4 strain, TK1029 strain, RC-1 strain were each inoculated to a 6-well plate containing 2 mL of a liquid medium (BHI added with 5% FCS), and fatty acid (20 μM) and menaquinone (MK-4) 100 μg/mL were added. After shaking culture for 24 hr at temperature 37° C., microaerobic conditions (5% 02, 10% CO2, 85% N2), the culture medium was applied on a Helicobacter agar plate, cultured for 3 days and the resulting colonies were counted (FIG. 2-1 A: SS1 strain, FIG. 2-2 B: TN2GF4 strain, FIG. 2-3 C: TK1029 strain, FIG. 2-4 D: RC-1 strain. Item 1: control (menaquinone no addition), Item 2: control (menaquinone 100 μg/mL addition), Item 3: HYA 20 μM (menaquinone no addition), Item 4: HYA 20 μM (menaquinone 100 μg/mL addition), Item 5: linoleic acid 20 μM (menaquinone no addition), Item 6: linoleic acid 20 μM (menaquinone 100 μg/mL addition). *, P<0.0001 vs. Control (ordinary one-way ANOVA)).
# [5] = test system: Helicobacter pylori SS1 strain, TN2GF4 strain, ATCC43579 strain, NCTC11637 strain, TY281 strain, TY1345 strain; experiment: Proliferation inhibitory effect (in vitro), static culture 3 days, colony count; conditions: menaquinone (MK-4) 100 μg/mL added with fatty acid
# Experimental: Helicobacter pylori SS1 strain, TN2GF4 strain, ATCC43579 strain, NCTC11637 strain, TY281 strain, TY1345 strain were each inoculated to a 6-well plate containing 3 mL of a liquid medium (Brucella broth added with 10% FCS), and fatty acid (200 μM or 1000 μM) and menaquinone (MK-4) 100 μg/mL were added. After static culture for 3 days at temperature 37° C., microaerobic conditions (5% 02, 10% 002, 85% N2), the culture medium was applied on a Helicobacter agar plate, cultured for 3 days and the resulting colonies were counted (FIG. 1-1 A: SS1 strain, FIG. 1-2 B: TN2GF4 strain, FIG. 1-3 C: ATCC43579 strain, FIG. 1-4 D: NCTC11637 strain, FIG. 1-5 E: TY281 strain, FIG. 1-6 F: TY1345 strain. Item C: control (no addition), Item 1: HYA addition, Item 2: HYA and menaquinone addition, Item 3: linoleic acid addition, Item 4: linoleic acid and menaquinone addition).
SMILES,"ED50 value, 15 hr later [3] [µg/mL]","ED50 value, 25 hr later [3] [µg/mL]",other results
"CC/C=C\C/C=C\CC(O)CCCCCCCCC(=O)O (stereo not drawn) [αHYA, 10-hydroxy-cis-12,cis-15-octadecadienoic acid]",,,proliferation of Campylobacter jejuni ATCC33560 strain [1]: inhibited proliferation; proliferation of Campylobacter coli ATCC33559 strain [2]: inhibited proliferation
CCCCC/C=C\C/C=C\CCCCCCCC(=O)O [linoleic acid],50,50,
CCCCCC[C@@H](O)C/C=C\CCCCCCCC(=O)O [ricinoleic acid],5,0.5,
"CC(C)=CCC/C(C)=C/CC/C(C)=C/CC/C(C)=C/CC1=C(C)C(=O)c2ccccc2C1=O [menaquinone (MK-4), menaquinone]",,,effect of menaquinone addition on inhibition of proliferation by fatty acid [4]: mitigated inhibition of proliferation; effect of menaquinone addition on inhibition of proliferation by fatty acid [5]: mitigated inhibition of proliferation
CCCCCCCC/C=C\CCCCCCCC(=O)O [oleic acid],50,>50,
"CCCCC/C=C\CC(O)CC/C=C\CCCCC(=O)O (stereo not drawn) [γHYA, 10-hydroxy-cis-6,cis-12-octadecadienoic acid]",,,proliferation of Campylobacter jejuni ATCC33560 strain [1]: inhibited proliferation; proliferation of Campylobacter coli ATCC33559 strain [2]: inhibited proliferation
CCCCCCCCCCCCCCCCCC(=O)O [stearic acid],500,>500,
